Reference: patent publication US20070155803A1, “Protease inhibitors” (ProZymex A/S, priority 2003, published 2007)
Square brackets hold non-standard residues; d marks the D form. Peptide text beside a SMILES is read from it. Phe(3-F) = N[C@@H](Cc1cccc(F)c1)C(=O)O; hPhe = N[C@@H](CCc1ccccc1)C(=O)O; Abu = CC[C@H](N)C(=O)O; azaGly = NNC(=O)O

How the values were obtained:
CYP1A2 = target: T1, CYP1A2 (Homo sapiens, UniProt P05177); test: Human CYP1A2 assay (Vivid CYP1A2 Blue Screening Kit); format: in vitro ADME; conditions: 20 μM cutoff; read-out: Metabolism: CYP enzymes (20 μM cutoff or IC50) CYP1A2
T1 construct: purchased PanVera Vivid CYP1A2 Blue Screening Kit; host or cells: insect cells infected with baculovirus (microsomes)
T1 sequence (P05177 2-516 limits assumed): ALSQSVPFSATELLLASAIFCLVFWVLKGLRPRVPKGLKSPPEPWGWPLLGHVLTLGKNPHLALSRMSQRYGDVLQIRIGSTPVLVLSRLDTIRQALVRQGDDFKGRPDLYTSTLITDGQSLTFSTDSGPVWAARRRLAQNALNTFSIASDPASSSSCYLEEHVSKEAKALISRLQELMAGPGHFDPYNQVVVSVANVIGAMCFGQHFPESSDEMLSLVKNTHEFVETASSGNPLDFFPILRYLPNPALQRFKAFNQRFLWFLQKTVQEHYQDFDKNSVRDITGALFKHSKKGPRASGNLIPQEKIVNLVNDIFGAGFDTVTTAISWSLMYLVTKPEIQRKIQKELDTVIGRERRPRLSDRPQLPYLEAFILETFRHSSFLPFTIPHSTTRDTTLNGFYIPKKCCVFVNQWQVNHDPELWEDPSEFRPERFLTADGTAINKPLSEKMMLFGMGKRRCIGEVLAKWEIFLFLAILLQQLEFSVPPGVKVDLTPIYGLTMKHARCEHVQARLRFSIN
Protocol: This assay was used to determine the effect of a compound of the invention on the CYP1A2 liver metabolizing enzyme.
Vivid® CYP1A2 Blue Screening Kit from PanVera was used.
Vivid®CYP450 Reaction Buffer I: 200 mM potassium phosphate buffer, pH 8.
CYP1A2 baculosoniese® reagent: CYP1A2 and […] (P450-specific content: 1.1 μM). Microsomes prepared from insect cells that were infected with baculovirus containing the cDNA for human CYP1A2 and rabbit cytochrome P450 reductase.
Regenerating System: 333 mM glucose-6-phosphate and 40 U/mL glucose-6-phosphate dehydrogenase in 100 mM potassium phosphate buffer, pH 8.
Vivid® CYP1A2 Blue Substrate.
Vivid® Blue Standard: 3-cyano-7-hydroxycoumarin.
10 mM NADP^+ in 100 mM potassium phosphate buffer, pH 8.
(§1) Tubes thawed on ice. 2× reaction buffer dispensed (room temperature) in two eppendorf tubes (for Mix A and Mix B).
(§2) Controls or compounds of the invention: Diluted to a concentration of 50 μM. Positive control compound: α-naphthoflavone.
(§3) Negative controls: DMSO and H2O.
Mix A: 485 μL reaction buffer, 10 μL regeneration system, 5 μL Baculosome reagent. Mixed gently and placed on ice. […]
In a 96-well plate (Costar c-3904), 40 μL of 50 μM sample dispensed. […] Fluorescence determined (Molecular Devices, SPECTRAmax Gemini EM): Ex: 409 nm, Em: 460 nm, at 37° C. for 20 min. (Automix: 5 s, top read.).

CYP2C9 = target: T2, CYP2C9 (Homo sapiens, UniProt P11712); test: CYP2C9 assay (Vivid CYP2C9 Red Screening Kit); format: in vitro ADME; conditions: 20 μM cutoff; read-out: Metabolism: CYP enzymes (20 μM cutoff or IC50) CYP2C9
T2 construct: purchased PanVera Vivid CYP2C9 Red Screening Kit
T2 sequence (P11712 whole entry): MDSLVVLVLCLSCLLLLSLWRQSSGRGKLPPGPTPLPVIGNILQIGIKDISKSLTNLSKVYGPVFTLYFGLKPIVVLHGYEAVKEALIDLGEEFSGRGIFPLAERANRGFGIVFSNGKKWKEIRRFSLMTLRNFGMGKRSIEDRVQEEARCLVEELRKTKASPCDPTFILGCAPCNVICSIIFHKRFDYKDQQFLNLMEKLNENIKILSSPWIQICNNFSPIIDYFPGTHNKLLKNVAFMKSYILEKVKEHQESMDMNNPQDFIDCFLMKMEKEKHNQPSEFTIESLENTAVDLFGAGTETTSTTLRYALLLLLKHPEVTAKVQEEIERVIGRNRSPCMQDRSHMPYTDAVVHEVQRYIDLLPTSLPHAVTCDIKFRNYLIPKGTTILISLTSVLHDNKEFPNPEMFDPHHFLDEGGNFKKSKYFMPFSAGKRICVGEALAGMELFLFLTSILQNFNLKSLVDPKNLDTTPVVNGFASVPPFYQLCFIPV
Protocol: as §1, §2, §3
(§4) Mix A: 485 μL reaction buffer, 10 μL regeneration system, 5 μL Baculosome reagent. Mixed gently and placed on ice.
(§5) Mix B: 88.5 μL reaction buffer, 1.5 μL substrate, 10 μL 10 mM NADP^+.
(§6) In a 96-well plate (Costar c-3904), 40 μL of 50 μM sample dispensed. 50 μl Mix A added. Incubated 20 min. at rt. Then, 10 μl of Mix B added. Fluorescence determined (Molecular Devices, SPECTRAmax Gemini EM): Ex: 409 nm, Em: 460 nm, at 37° C. for 20 min. (Automix: 5 s, top read.).
(§7) Following the procedure for CYP1A2, using the appropriate kits below, the effect of a compound of the invention on the other CYP enzymes was determined:
Vivid® CYP2C9 Red Screening Kit from PanVera.

Human liver cathepsin B = target: T3, Human liver cathepsin B (Homo sapiens, UniProt P07858); test: Human liver cathepsin B assay; format: biochemical
T3 construct: Human liver cathepsin B (Enzyme System Products, CAT-B); purchased Enzyme System Products CAT-B; host or cells: human liver
Protocol: Human Liver Cathepsin B Assay
Using this assay, the selectivity of a compound of the invention for hDPP-I over human cathepsin B was determined, using a fluorogenic substrate.
0.1 M MES buffer (1.95 g; M=195.2) and 1 mM EDTA (37 mg; M=372.2) were mixed in 100 mL H2O and pH adjusted to 6.1. DTT (10 μL, 0.5 M) was added for activation of the enzyme […].
Human liver cathepsin B (Enzyme System Products, CAT-B; stock 25 μg/54 μL=463 ng/μL). One aliquot was diluted to a concentration of 40 ng/μL by adding 53 μL assay buffer (without DTT). Just prior to experiment, two more dilution steps were performed: 4 ng/μL: 5 μL (40 ng/μL)+45 μL buffer (without DTT) 0.1 ng/μL: 5 μL (4 ng/μL)+[…] buffer (without DTT)
Boc-Leu-Arg-Arg-AFC.2TFA (Enzyme System Products AFC113). Stock solution made (20 mM; 15.1 mg dissolved in 1 ml DMSO). Diluted further in H2O to 10 mM. Km for this substrate has been determined to be 600 μM.
The assay was performed in 96-well plates. 84 μL assay buffer was added to the well followed by 10 μL 1% DMSO in assay buffer (control) or a compound, of the invention (10 μM in the assay). […] The excitation wavelength was 400 nm, and the emission was measured at 505 nm for 10-20 minutes at 37° C. […] In the software (SOFTmax Pro) used for data collection from the fluorometer (Molecular Devices: Gemini XS), it was ensured that the measured slopes were linear (R^2>0.99). […]

Human DPP-I = target: T4, Human DPP-I (Homo sapiens, UniProt P53634); test: Human Dipeptidyl Peptidase I (DPP-I) assay, AFC substrate; format: biochemical; conditions: Gly-Phe-AFC substrate, pH 6.0, read-out: Primary enzymatic screening (IC50) DPP-I
T4 construct: purchased UniZyme A/S
T4 sequence (P53634 231-394 limits assumed): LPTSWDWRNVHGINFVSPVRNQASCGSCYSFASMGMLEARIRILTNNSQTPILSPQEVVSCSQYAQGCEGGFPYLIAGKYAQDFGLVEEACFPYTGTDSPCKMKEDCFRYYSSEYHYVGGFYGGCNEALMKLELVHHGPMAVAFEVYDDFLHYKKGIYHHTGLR
T4 sequence (P53634 395-463 limits assumed): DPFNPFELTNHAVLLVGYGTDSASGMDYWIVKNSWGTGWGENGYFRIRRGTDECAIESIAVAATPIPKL
T4 sequence (P53634 25-143 limits assumed): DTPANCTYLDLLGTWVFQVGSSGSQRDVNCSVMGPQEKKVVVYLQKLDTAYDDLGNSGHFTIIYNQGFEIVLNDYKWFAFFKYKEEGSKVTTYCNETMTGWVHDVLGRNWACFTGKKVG
Protocol: Human Dipeptidyl Peptidase I (DPP-I) Assay
Using this assay, the IC50 value of a compound of the invention as a DPP-I inhibitor was determined using an AFC substrate.
100 mM sodium phosphate (8.9 g Na2HPO4; M=177.99), 150 mM KCl (5.6 g KCl; M=74.6) and 1.5 mM EDTA (279 mg EDTA; M=372.2) was dissolved in 500 mL H2O, and pH was adjusted to 6.0. Cysteine*HCl (Sigma C-1276; M=157.6), 1 mg/mL assay buffer, corresponding to 6 mM, was added to the solution for activation of the DPP-I enzyme.
Gly-Phe-AFC*TFA (Enzyme Systems Products AFC-033) was used as the substrate for determination of IC50 values. […] The substrate was solubilized in DMSO to give a 7.5 mM stock solution (2.2 mg of substrate was added to 0.5 mL DMSO).
Human DPP-I (hDDP-I; obtained from UniZyme A/S, DK-2970 Horsholm, Denmark) was stored at −20° C. in a buffer containing 2.5 mM Na-phosphate, 150 mM NaCl, 2 mM cysteamine, 50% glycerol, pH 7.0 at a concentration of 2.5 mg/mL. This stock solution was diluted 200 times in the assay buffer.
Th assay was performed in 96-well plates. […] The excitation wavelength was 400 nm, and the emission was measured at 505 nm for 10 minutes at 37° C. […] In the software (SOFTmax Pro) used for data collection from the fluorometer (Molecular Devices: Gemini XS), it was erisured that the measured slopes were linear (R^2>0.99). […]

CYP3A4 = target: T5, CYP3A4 (Homo sapiens, UniProt P08684); test: CYP3A4 assay (Vivid CYP3A4 Red Screening Kit); format: in vitro ADME; conditions: read-out: Metabolism: CYP enzymes (20 μM cutoff or IC50) CYP3A4
T5 construct: purchased PanVera Vivid CYP3A4 Red Screening Kit
T5 sequence (P08684 whole entry): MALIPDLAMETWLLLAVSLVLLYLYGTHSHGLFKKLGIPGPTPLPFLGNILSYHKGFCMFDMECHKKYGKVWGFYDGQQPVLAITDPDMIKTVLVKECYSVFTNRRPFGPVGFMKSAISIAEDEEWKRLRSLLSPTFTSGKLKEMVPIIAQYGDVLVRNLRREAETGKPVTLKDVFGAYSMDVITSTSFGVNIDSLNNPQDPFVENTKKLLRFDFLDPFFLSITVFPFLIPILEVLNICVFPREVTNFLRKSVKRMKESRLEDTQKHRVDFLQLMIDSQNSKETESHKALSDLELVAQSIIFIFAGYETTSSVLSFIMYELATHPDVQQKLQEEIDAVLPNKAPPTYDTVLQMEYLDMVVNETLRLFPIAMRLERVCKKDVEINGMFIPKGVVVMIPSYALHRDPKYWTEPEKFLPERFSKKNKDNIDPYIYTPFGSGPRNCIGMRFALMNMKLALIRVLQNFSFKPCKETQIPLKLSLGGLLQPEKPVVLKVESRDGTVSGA
Protocol: as §1, §2, §3, §4, §5, §6, §7
Vivid® CYP3A4 Red Screening Kit from PanVera.

CYP2C19 = target: T6, CYP2C19 (Homo sapiens, UniProt P33261); test: CYP2C19 assay (Vivid CYP2C19 Red Screening Kit); format: in vitro ADME; conditions: 20 μM cutoff; read-out: Metabolism: CYP enzymes (20 μM cutoff or IC50) CYP2C19
T6 construct: purchased PanVera Vivid CYP2C19 Red Screening Kit
T6 sequence (P33261 whole entry): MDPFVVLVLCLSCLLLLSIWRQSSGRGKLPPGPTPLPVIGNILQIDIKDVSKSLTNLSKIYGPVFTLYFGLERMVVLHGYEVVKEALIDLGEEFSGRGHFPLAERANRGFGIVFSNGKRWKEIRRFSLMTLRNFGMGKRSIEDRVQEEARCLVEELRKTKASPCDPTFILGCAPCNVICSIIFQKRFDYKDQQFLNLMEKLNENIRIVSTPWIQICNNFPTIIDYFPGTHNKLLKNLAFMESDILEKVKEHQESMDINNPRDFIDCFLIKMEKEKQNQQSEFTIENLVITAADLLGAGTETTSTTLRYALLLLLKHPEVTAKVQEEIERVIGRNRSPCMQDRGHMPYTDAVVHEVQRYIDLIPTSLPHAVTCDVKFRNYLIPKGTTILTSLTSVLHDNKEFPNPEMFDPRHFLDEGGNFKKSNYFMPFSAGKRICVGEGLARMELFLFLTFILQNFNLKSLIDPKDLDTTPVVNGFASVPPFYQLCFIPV
Protocol: as §1, §2, §3, §4, §5, §6, §7
Vivid® CYP2C19 Red Screening Kit from PanVera.

CC[C@H](N)C(=O)NNC(=O)N[C@@H](CCc1ccccc1)C(=O)N[C@@H](Cc1cccc(F)c1)C(N)=O [Example 11, 1-(2S-2-Aminobutanoyl)-4-[2S-N-[2S-3-(m-fluorophenyl)propan-2-yl-amide]-4-phenylbutan-2-yl-amide]semicarbazide] (H-[Abu][azaGly][hPhe][Phe(3-F)]-NH2)
IC50 (CYP1A2): > 20 µM
IC50 (CYP2C9): > 20 µM
Inhibition of Cathepsin B (in words) (Human liver cathepsin B): does not inhibit
IC50 (Human liver cathepsin B; human liver cathepsin B, read-out: Secondary enzymatic screening (10 μM cutoff or IC50) Cathepsin B): 4.5 µM
IC50 (Human DPP-I): 0.04 ± 0.006 µM
IC50 (CYP3A4): 0.6 µM
IC50 (CYP2C19): > 20 µM
